Drawing on ChEMBL document CHEMBL1158277, “N -(Indol-3-ylethyl)-2-hydroxy-3-methylpentanamide, a Novel Indole Derivative from Xenorhabdus nematophilus” (J Nat Prod, 1996), this text covers Activity for one compound.

This test relates to Bacillus subtilis. Nature of the test: Antibacterial activity against Bacillus subtilis at 100 ug/mL. Type of test: functional, organism-based.

The source made the active and inactive calls. The calls are words filed in the database; no cut-off is given here.

With `CC[C@H](C)[C@@H](O)C(=O)NCCc1c[nH]c2ccccc12`, the result was inactive.
